Assay results taken from patent US9113629B2, “4-amino-6-(4-substituted-phenyl)-picolinates and 6-amino-2-(4-substituted-phenyl)-pyrimidine-4-carboxylates and their use as herbicides” (DOW AGROSCIENCES LLC, priority 2013, dated 2015).
Read-outs that look alike come from different tables or passages of the source. Values belong to the compound of their own block, whether it stands above or below them.

How the values were obtained:
[1] = test system: Key Grass and Sedge Weeds as well as Grass Crops; assay: Post-emergent Test II herbicidal activity (Table 6); format: in vivo; conditions: post-emergence, 336 h; for pest or weed control at 70 g/ha: 70 g ai/ha; for pest or weed control at 140 g/ha: 140 g ai/ha
Method in brief: (§1)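 Post-emergence foliar spray, 187 L/ha, track sprayer at 43 cm above canopy. Carrier: acetone/water/IPA/DMSO/Atplus 411F/Triton X-155. Plants at 1st–2nd true leaf; subirrigated afterwards; % injury scored visually at 14 d.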

[2] = test system: Key Broadleaf Weed and Crop Species; assay: Post-emergent Test II herbicidal activity (Table 5); format: in vivo; conditions: post-emergence, 336 h, 14 days after application; for pest or weed control at 70 g/ha: application rate 70 g ai/ha; for pest or weed control at 140 g/ha: application rate 140 g ai/ha
Method in brief: as §1

[3] = CYPES: yellow nutsedge (Cyperus esculentus), read-out: Visual Growth Reduction (%) 14 Days After Application, CYPES
[4] = DIGSA: crabgrass (Digitaria sanguinalis), read-out: Visual Growth Reduction (%) 14 Days After Application, DIGSA
[5] = ECHCG: barnyardgrass (Echinochloa crus-galli), read-out: Visual Growth Reduction (%) 14 Days After Application, ECHCG
[6] = ORYSA: rice (Oryza sativa), crop, read-out: Visual Growth Reduction (%) 14 Days After Application, ORYSA
[7] = SETFA: giant foxtail (Setaria faberi), read-out: Visual Growth Reduction (%) 14 Days After Application, SETFA
[8] = SORVU: grain sorghum (Sorghum vulgare), read-out: Visual Growth Reduction (%) 14 Days After Application, SORVU
[9] = TRZSS (wheat, Triticum aestivum), crop, read-out: Visual Growth Reduction (%) 14 Days After Application, TRZSS
[10] = ZEAMX: maize, corn (Zea mays), crop, read-out: Visual Growth Reduction (%) 14 Days After Application, ZEAMX
[11] = ABUTH: velvetleaf (Abutilon theophrasti), read-out: Visual Growth Reduction (%) 14 Days After Application, ABUTH
[12] = AMARE: redroot pigweed (Amaranthus retroflexus), read-out: Visual Growth Reduction (%) 14 Days After Application, AMARE
[13] = BRSNN: oilseed-rape, canola (Brassica napus), read-out: Visual Growth Reduction (%) 14 Days After Application, BRSNN
[14] = CHEAL: lambsquarters (Chenopodium album), read-out: Visual Growth Reduction (%) 14 Days After Application, CHEAL
[15] = EPHHL: wild poinsettia (Euphorbia heterophylla), read-out: Visual Growth Reduction (%) 14 Days After Application, EPHHL
[16] = HELAN: sunflower (Helianthus annuus), read-out: Visual Growth Reduction (%) 14 Days After Application, HELAN
[17] = VIOTR: wild pansy (Viola tricolor), read-out: Visual Growth Reduction (%) 14 Days After Application, VIOTR

- melting point: 174 to 176 °C
SMILES: C#Cc1ccc(-c2nc(C(=O)O)c(Cl)c(N)c2F)c(F)c1F [Compound 50]
- pest or weed control at 70 g/ha [1, 3]: 0 to 29%
- pest or weed control at 140 g/ha [1, 3]: 0 to 29%
- pest or weed control at 70 g/ha [1, 4]: 0 to 29%
- pest or weed control at 140 g/ha [1, 4]: 45 to 59%
- pest or weed control at 70 g/ha [1, 5]: 45 to 59%
- pest or weed control at 140 g/ha [1, 5]: 75 to 84%
- pest or weed control at 70 g/ha [1, 6]: 0 to 29%
- pest or weed control at 140 g/ha [1, 6]: 0 to 29%
- pest or weed control at 70 g/ha [1, 7]: 30 to 44%
- pest or weed control at 140 g/ha [1, 7]: 45 to 59%
- pest or weed control at 70 g/ha [1, 8]: 0 to 29%
- pest or weed control at 140 g/ha [1, 8]: 0 to 29%
- pest or weed control at 70 g/ha [1, 9]: 0 to 29%
- pest or weed control at 140 g/ha [1, 9]: 0 to 29%
- pest or weed control at 70 g/ha [1, 10]: 95 to 100%
- pest or weed control at 140 g/ha [1, 10]: 95 to 100%
- pest or weed control at 70 g/ha [2, 11]: 60 to 74%
- pest or weed control at 140 g/ha [2, 11]: 60 to 74%
- pest or weed control at 70 g/ha [2, 12]: 0 to 29%
- pest or weed control at 140 g/ha [2, 12]: 0 to 29%
- pest or weed control at 70 g/ha [2, 13]: 0 to 29%
- pest or weed control at 140 g/ha [2, 13]: 0 to 29%
- pest or weed control at 70 g/ha [2, 14]: 0 to 29%
- pest or weed control at 140 g/ha [2, 14]: 0 to 29%
- pest or weed control at 70 g/ha [2, 15]: 45 to 59%
- pest or weed control at 140 g/ha [2, 15]: 95 to 100%
- pest or weed control at 70 g/ha [2, 16]: 45 to 59%
- pest or weed control at 140 g/ha [2, 16]: 60 to 74%
- pest or weed control at 70 g/ha [2, 17]: 0 to 29%
- pest or weed control at 140 g/ha [2, 17]: 0 to 29%

SMILES: COC(=O)c1nc(-c2ccc(OC(F)F)c(F)c2F)c(F)c(N)c1Cl [Compound 103]
- pest or weed control at 70 g/ha [1, 3]: 0 to 29%
- pest or weed control at 140 g/ha [1, 3]: 45 to 59%
- pest or weed control at 70 g/ha [1, 4]: 0 to 29%
- pest or weed control at 140 g/ha [1, 4]: 0 to 29%
- pest or weed control at 70 g/ha [1, 5]: 0 to 29%
- pest or weed control at 140 g/ha [1, 5]: 0 to 29%
- pest or weed control at 70 g/ha [1, 6]: 0 to 29%
- pest or weed control at 140 g/ha [1, 6]: 0 to 29%
- pest or weed control at 70 g/ha [1, 7]: 0 to 29%
- pest or weed control at 140 g/ha [1, 7]: 0 to 29%
- pest or weed control at 70 g/ha [1, 8]: 0 to 29%
- pest or weed control at 140 g/ha [1, 8]: 0 to 29%
- pest or weed control at 70 g/ha [1, 9]: 0 to 29%
- pest or weed control at 140 g/ha [1, 9]: 0 to 29%
- pest or weed control at 70 g/ha [1, 10]: 0 to 29%
- pest or weed control at 140 g/ha [1, 10]: 0 to 29%
- pest or weed control at 70 g/ha [2, 11]: 45 to 59%
- pest or weed control at 140 g/ha [2, 11]: 45 to 59%
- pest or weed control at 70 g/ha [2, 12]: 0 to 29%
- pest or weed control at 140 g/ha [2, 12]: 0 to 29%
- pest or weed control at 70 g/ha [2, 13]: 0 to 29%
- pest or weed control at 140 g/ha [2, 13]: 30 to 44%
- pest or weed control at 70 g/ha [2, 14]: 0 to 29%
- pest or weed control at 140 g/ha [2, 14]: 85 to 94%
- pest or weed control at 70 g/ha [2, 15]: 0 to 29%
- pest or weed control at 140 g/ha [2, 15]: 0 to 29%
- pest or weed control at 70 g/ha [2, 16]: 75 to 84%
- pest or weed control at 140 g/ha [2, 16]: 75 to 84%
- pest or weed control at 70 g/ha [2, 17]: 0 to 29%
- pest or weed control at 140 g/ha [2, 17]: 0 to 29%
